The values that follow come from article PMC10747975, “Synthesis, Antimalarial, Antileishmanial, and Cytotoxicity Activities and Preliminary In Silico ADMET Studies of 2-(7-Chloroquinolin-4-ylamino)ethyl Benzoate Derivatives” (Pharmaceuticals, 2023).

One series deals with β-hematin formation. Briefly: Inhibition of β-hematin formation. In kind it is biochemical. As to conditions: n = 3, read-out: IC50: Half maximal inhibitory concentration (βHF). Here is the method: The β-hematin (β-H) formation assay was performed as described previously. In 96-well microplates, hemin chloride solution (50 μL, 4 mM) was dissolved in dimethyl sulfoxide (DMSO) (5 mg mL^−1). We dissolved the compounds in DMSO and added different concentrations (100–5 mM) to the test wells (50 μL). As controls, 50 μL of water and 50 μL of DMSO were used. Experiments were conducted in triplicate. In order to generate β-H, acetate buffer (100 μL, 0.2 M, pH 4.4) was used. After 48 h at 37 °C, the plates were centrifuged (4000 RPM for 15 min, IEC-CENTRA, MP4R) (International Equipment Company, MA, USA). After discarding the supernatants, the pellet was washed twice with DMSO (200 μL) and dissolved in NaOH (200 μL, 0.2 N). […] The outcomes are expressed as percentages of inhibition of β-H formation.

Another series relates to Plasmodium berghei ANKA. Kind of series: Four-day suppressive test in P. berghei-infected mice. In kind it is in vivo. The note with it: for Survival: number of mice that survived until Day 30 post-infection/total number of mice in the group / %P: percent parasitaemia (± SEM): 25 mg/kg ip; for Sd: survival days (± SEM): P. berghei-infected BALB/c mice, 25 mg/kg ip once daily for four days; for Sd: survival days (± SEM) / %P: percent parasitaemia (± SEM): n = 6; for %P: percent parasitaemia (± SEM): fourth day post-infection. The method, then:
The compounds 4c and 4e were evaluated in mice infected with P. berghei ANKA, a strain of murine malaria susceptible to CQ(DPh). The compounds 4c and 4e were assessed on the fourth day post-infection by evaluating their ability to increase mouse survival and reduce parasitaemia in vivo compared to untreated controls. The compounds 4c, 4e (25 mg/kg), or CQ (25 mg/kg) were administered intraperitoneally (ip) once daily in mice following previously reported protocols. The Institute of Immunology Bioethical Committee approved the study (AS 161019). We followed the guidelines for Laboratory Animal Research of the National Research Council (ILAR).
For the experiments, male BALB/c mice, 18–22 g, were fed a commercial pellet diet under controlled conditions approved by the Institute of Immunology’s Ethics Committee. The animals were infected with the rodent malaria ANKA strain of Plasmodium berghei; 1 × 10^6 infected erythrocytes diluted in phosphate-buffered saline (PBS; 10 mM, pH 7.4, 0.1 mL) were injected […] into mice. Microscopic examination of Giemsa-stained smears was used to monitor parasitaemia.
Plasmodium berghei-infected red blood cells were injected into the caudal vein of BALB/c mice (18–23 g) (n = 6). Within two hours of infection, the active compounds from the in vitro test began to be administered (inhibition of β-H formation). Following dissolution in DMSO (0.1 M), the compounds were diluted with 2% saline-Tween 20 solution. The compounds (dose 25 mg kg^−1) were administered ip for four days. Giemsa-stained smears were examined on the fourth day to determine the parasite load. As a positive control, CQ (25 mg kg^−1) in DMSO (0.1 M) diluted with 2% saline-Tween 20 solution was used. A control group of mice infected with P. berghei incubated with saline solution was used to determine survival times. The results are expressed as a percentage of parasitaemia, and the survival curve was constructed based on the number of days of survival after treatment with the compound over that of mice infected without treatment.

Series [1] in a line: In vitro toxicity on mouse red blood cells (haemolysis). In kind it is cell-based. The note with it: mouse RBCs, 37 °C. Here is the method: To evaluate the in vitro toxicological effects of the compounds, we measured the haemoglobin released into the supernatant fraction of lysed red blood cells (RBCs). […] To obtain 100% RBCs, mouse blood was spun down at 800 g for 10 min and washed thrice with saline solution. […] RBCs were lysed in 1% saponin solution and were used as a positive control and a PBS solution as a negative control. The percentage of haemolysis was calculated using the formula: % Haemolysis = [(AT − AN)/(AP − AN)] × 100, where AT = mean absorbance of the test compound; AN = mean absorbance of the negative control; AP = mean absorbance of the positive control.

Series [2] has as its system Leishmania mexicana promastigotes. Kind of series: L. mexicana promastigote growth inhibition. In kind it is cell-based. The note with it: growth/viability, Bel 21 strain. The method, then:
The growth of L. mexicana was carried out as previously reported. L. mexicana (Bel 21 strain) promastigotes were cultured in liver infusion-tryptose (LIT) medium supplemented with 10% foetal bovine serum using continuous agitation at 29 °C, as reported previously. A growth curve was performed to evaluate the susceptibility of parasites to the different compounds at different concentrations. Parasites were counted daily using a Neubauer chamber. […] The final concentration of sterile DMSO in the parasite culture was 0.1%, not affecting the viability. […] FCCP (2 µM) was used as a positive control.

Series [3] has as its system mitochondrial electrochemical membrane potential of Leishmania mexicana promastigotes. Kind of series: Mitochondrial membrane potential of L. mexicana (rhodamine 123). In kind it is cell-based. The note with it: compounds 10 μM; b32 compares 4b, 4e with 4c. Here is the method:
The effect of different compounds on the mitochondrial membrane potential of L. mexicana promastigotes was evaluated using rhodamine 123, a fluorescent dye distributed inside mitochondria according to the electrochemical membrane potential, as reported previously. Briefly, 10^8 parasites were obtained by centrifugation at 600× g for 2 min and washed in phosphate-buffered saline solution (PBS) plus 1% glucose. The pellet was resuspended in the same buffer but in the presence of 20 µM rhodamine 123 for 45 min at 29 °C in the dark with mild agitation. Then, parasites were washed twice, resuspended in the same buffer, and transferred into a stirred cuvette. Measurements (excitation wavelength [λex], 488 nm; emission wavelength [λem], 530 nm) were made in a Hitachi 7000 spectrofluorometer at 29 °C (Hitachi High-Tech Corporation, Tokyo, Japan). FCCP (2 µM) was used as a positive control.

Series [4] concerns acidocalcisomes of Leishmania mexicana. Kind of series: Acidocalcisome function (acridine orange accumulation). In kind it is cell-based. As to conditions: results not shown. An excerpt:
Considering this issue, we investigate another possible action of these compounds in these parasites. The acidocalcisomes are another relevant organelle characteristic of these trypanosomatids directly involved in bioenergetics and intracellular Ca^2+ regulation. These are acidic vacuoles rich in calcium and phosphates, engaged in the production and storage of pyrophosphates, and alternative energetic currency in addition to ATP, well known in trypanosomatids. For this reason, we also tested the possible effect of the compounds 4b, 4c, and 4e on acidocalcisomes, using acridine orange accumulation as a well-recognized method. This compound is released to the medium after parasite alkalization, denoting the loss of this organelle function. […] In this context, it is interesting to mention that in trypanosomatids, the disruption of intracellular Ca^2+ homeostasis drives parasite death, thus proposing that alteration of this function could be a rational therapeutic target.

For series [5], the system named is Leishmania mexicana promastigotes. The arrangement: method as in PMID 27458218. The note with it: reference compound; cited from earlier work.
[6] abbreviates: 2% suspension of mouse red blood cells.

“And” between values parts separate entries of the source, which are not always exact repeats. Equal values may be shown once. “Also recorded” adds a separate entry of the source. Read-outs that look alike come from different tables or passages of the source.

Take `COc1cc(C(=O)OCCNc2ccnc3cc(Cl)ccc23)cc(OC)c1OC` [4g, 2-(7-Chloroquinolin-4-ylamino)ethyl-3,4,5-trimethoxybenzoate]: in the series on β-hematin formation, the IC50 turned out to be 2.98 ± 0.17 µM.

For `COc1ccccc1C(=O)OCCNc1ccnc2cc(Cl)ccc12` [4a, 2-(7-Chloroquinolin-4-ylamino)ethyl-2-methoxybenzoate], the IC50 with β-hematin formation is 4.16 ± 0.61 µM.

As to `CC(C)(C)c1ccc(C(=O)OCCNc2ccnc3cc(Cl)ccc23)cc1` [4l, 2-(7-Chloroquinolin-4-ylamino)ethyl-4-tert-butylbenzoate], the IC50 in the series with β-hematin formation stood at 3.57 ± 0.22 µM.

With `COc1cccc(C(=O)OCCNc2ccnc3cc(Cl)ccc23)c1OC` [4c, 2-(7-Chloroquinolin-4-ylamino)ethyl-2,3-dimethoxybenzoate], the IC50 in the series on β-hematin formation is 2.1 ± 0.48 µM; in series [2] (Leishmania mexicana), less than 10 µM; in series [2], 8.46 ± 1.86 µM. The “Survival: number of mice that survived until Day 30 post-infection/total number of mice in the group” value in the series with Plasmodium berghei ANKA is listed as 0/6. The “Sd: survival days (± SEM)” value with Plasmodium berghei ANKA (25 mg/kg) is 16.7 ± 2.16 days and 16.71 ± 2.16 days. Also, the “%P: percent parasitaemia (± SEM)” value with Plasmodium berghei ANKA worked out at 9.86 ± 1.55 %. Further, the hemolysis at 45 min, 1 mM in series [1] (setting [6]) amounted to 4.73 ± 0.12%. Also, the “Effect on mitochondrial electrochemical membrane potential (rhodamine 123 fluorescence release)” value (“Effect … (rhodamine 123 fluorescence release)” for short) in series [3] was “rapid increase in the fluorescence; also recorded: lower”. Moreover, the “Effect on acidocalcisome functionality” value in series [4] is “none of these compounds showed any effect”.

As to `Cc1cc(C)cc(C(=O)OCCNc2ccnc3cc(Cl)ccc23)c1` [4j, 2-(7-Chloroquinolin-4-ylamino)ethyl-3,5-dimethylbenzoate], the IC50 in the series with β-hematin formation amounted to 3.16 ± 0.38 µM.

In the case of `COc1ccc(C(=O)OCCNc2ccnc3cc(Cl)ccc23)c(OC)c1` [4d, 2-(7-Chloroquinolin-4-ylamino)ethyl-2,4-dimethoxybenzoate], in the series on β-hematin formation, the IC50 was 8.59 ± 0.01 µM.

As for `COc1ccc(C(=O)OCCNc2ccnc3cc(Cl)ccc23)cc1` [4b, 2-(7-Chloroquinolin-4-ylamino)ethyl-4-methoxybenzoate], the IC50 in the series with β-hematin formation was 3.09 ± 0.27 µM; in series [2] (Leishmania mexicana) it was less than 10 µM; in series [2] it was 8.09 ± 1.47 µM. Further, the “Effect … (rhodamine 123 fluorescence release)” value in series [3] is given as “rapid increase in the fluorescence; also recorded: significantly higher”. The “Effect on acidocalcisome functionality” value in series [4] is given as “none of these compounds showed any effect”.

For the compound `CCN(CC)CCCC(C)Nc1ccnc2cc(Cl)ccc12` (stereo not drawn) [CQ(DPh), chloroquine bisphosphate, reference compound], in the series with Plasmodium berghei ANKA, the “Sd: survival days (± SEM)” value stood at 30 days and the “%P: percent parasitaemia (± SEM)” value is given as 0.28 ± 0.15%.

Regarding `COc1cc(OC)c(C(=O)OCCNc2ccnc3cc(Cl)ccc23)cc1OC` [4f, 2-(7-Chloroquinolin-4-ylamino)ethyl-2,4,5-trimethoxybenzoate], the IC50 in the series on β-hematin formation is 3.29 ± 0.23 µM.

Take `Cc1ccc([N+](=O)[O-])c(C(=O)OCCNc2ccnc3cc(Cl)ccc23)c1` [4k, 2-(7-Chloroquinolin-4-ylamino)ethyl-5-methyl-2-nitrobenzoate]: the IC50 with β-hematin formation came out at 4.27 ± 0.67 µM.

On to `O=C(OCCNc1ccnc2cc(Cl)ccc12)c1ccc(C(F)(F)F)cc1` [4m, 2-(7-Chloroquinolin-4-ylamino)ethyl-4-(trifluoromethyl)benzoate], for which, in the series with β-hematin formation, the IC50 turned out to be 3.24 ± 0.15 µM.

As to `OCCNc1ccnc2cc(Cl)ccc12` [compound 2, 2-(7-Chloroquinolin-4-ylamino)ethanol], in the series with β-hematin formation, the IC50 stood at 5.06 ± 0.31 µM.

In the case of `COc1ccc(OC)c(C(=O)OCCNc2ccnc3cc(Cl)ccc23)c1` [4e, 2-(7-Chloroquinolin-4-ylamino)ethyl-2,5-dimethoxybenzoate], the IC50 is 1.81 ± 0.83 µM in the series with β-hematin formation, less than 10 µM in series [2] (Leishmania mexicana) and 5.67 ± 2.15 µM in series [2]. The “Survival: number of mice that survived until Day 30 post-infection/total number of mice in the group” value with Plasmodium berghei ANKA is reported as 0/6. Moreover, in the series on Plasmodium berghei ANKA (25 mg/kg), the “Sd: survival days (± SEM)” value is 14.4 ± 1.20 days and 14.43 ± 1.20 days. The “%P: percent parasitaemia (± SEM)” value with Plasmodium berghei ANKA is on record as 12.05 ± 2.36 %. In series [1] (setting [6]), this compound registered a hemolysis at 45 min, 1 mM of 4.17 ± 0.21%. Besides, the “Effect … (rhodamine 123 fluorescence release)” value in series [3] is recorded as “rapid increase in the fluorescence; also recorded: significantly higher”. Besides, in series [4], the “Effect on acidocalcisome functionality” value was “none of these compounds showed any effect”.

On to `CCN(CC)CCCC(C)Nc1ccnc2cc(Cl)ccc12` (stereo not drawn) [CQ, chloroquine, reference compound], for which the “Survival: number of mice that survived until Day 30 post-infection/total number of mice in the group” value in the series on Plasmodium berghei ANKA is 6/6. For the same compound, the hemolysis at 45 min, 1 mM in series [1] worked out at 2.07 ± 0.17%.

`CC(C)=CCC/C(C)=C/CNCCNC1C2CC3CC(C2)CC1C3` (stereo not drawn) [SQ109]: the IC50 in series [5] was 0.53 ± 0.06 µM.

Consider `O=C(OCCNc1ccnc2cc(Cl)ccc12)c1cccc(Cl)c1` [4h, 2-(7-Chloroquinolin-4-ylamino)ethyl-3-chlorobenzoate], for which, in the series on β-hematin formation, the IC50 stood at 6.85 ± 0.94 µM.

On to `O=C(OCCNc1ccnc2cc(Cl)ccc12)c1ccccc1F` [4i, 2-(7-Chloroquinolin-4-ylamino)ethyl-2-fluorobenzoate], for which the IC50 in the series with β-hematin formation stood at 4.01 ± 0.09 µM.
